Test results reported in patent publication US4029671A, “3-[(5-nitro-2-imidazolyl)pyrazol-5-yl]oxamic acid derivatives” (priority 1976, dated 1977).
Counter-ions that a name gives are not always drawn.

What was measured:
[1] = tested on: Bacteroides fragilis sp. fragilis 1874; assay: Agar dilution susceptibility of anaerobic bacteria (Chart 1); format: cell-based
[2] = tested on: Actinomyces israelii W855; assay: as above; format: cell-based; conditions: 24 h, agar dilution, 37° C., read-out: 24 Hr. MIC
[3] = tested on: Bacteroides fragilis sp. fragilis 104; assay: as above; format: cell-based; conditions: Bacteroides fragilis, 24 h, read-out: 24 Hr. MIC
[4] = tested on: Bacteroides fragilis sp. fragilis 111; assay: as above; format: cell-based
[5] = tested on: Bacteroides fragilis sp. thetaiotaomicron 1438; assay: as above; format: cell-based
[6] = tested on: Bacteroides fragilis sp. fragilis 112; assay: as above; format: cell-based
[7] = tested on: Bacteroides melaninogenicus 2736; assay: as above; format: cell-based; conditions: 2736, 24 h, read-out: 24 Hr. MIC
[8] = tested on: Clostridium septicum 1128; assay: as above; format: cell-based; conditions: Clostridium septicum, 1128, 24 h, 37° C.
Procedure: The susceptibility of anaerobic bacteria, both gram positive and gram negative, to a representative number of the novel compounds of this application was determined using the agar dilution method. The bacteria used were isolated from patients hospitalized at the Indiana Univerisity Medical Center. The isolates were identified in the anaerobe laboratory of the Medical Center by the criteria established by Dowell et al., Laboratory Methods in Anaerobic Bacteriology. Public Health Serv. Publ. NO. 1803 (1968) [Center for Disease Control, Atlanta, Ga.]; and by Smith et al., The Pathogenic Anaerobic Bacteria, pages 96- 136 (1968) [Charles C. Thomas, Publisher, Springfield, Ill.]. All the organisms were maintained in chopped meat glucose medium (Scott Labs) at room temperature.
The method used for the agar dilution tests was based on the studies of Sutter et al., Antimicrob. Ag. Chemother. 3, 188-193 (1973). The strains of anaerobic bacteria were grown in 16×× 120 mm. tubes for 16 to 18 hours in Thioglycolate medium without indicator-- 135C (Becton, Dickinson and Co.), to which was added 5 mcg. of hemin per milliliter prior to autoclaving, plus 1 mg. of sodium bicarbonate and 0.1 mcg. of filter-sterilized menadione per milliliter after autoclaving. The strains were adjusted to the turbidity of the No. 1 McFarland standard in Thioglycolate medium without indicator-- 135C containing an additional 0.13 percent Bacto-agar (Difco). Each strain was then applied to the surface of the petri plate (100 mm× 15 mm.) by means of a replicator.
For the agar dilution studies, two-fold dilutions of the test compounds were prepared in deionized water to which was then added laked sheep blood and filter-sterilized menadione so the concentrations after the agar dilution were 5 percent and 10 mcg./ml. respectively. An equal volume of double strength Brucella agar (Becton, Dickinson and Co.) was mixed with each dilution in a water bath held at 50° C. and then poured onto the petri dishes.
All of the procedures were done inside a plastic glove box, except for the incubation of the growth tubes and the pouring of the plates. After the plates hardened, they were put inside the glove box for a minimum of 2 hours before they were inoculated. Generally, the glove box procedures of Aranki et al., Applied Microbiology 17, 568-576 (1969), were followed, but the following modifications were used. Dry materials were introduced into the glove box by evacuating the lock to 28 inches of mercury and filling once with nitrogen gas, followed by evacuating in the same manner and filling with an 80 percent nitrogen plus 10 percent CO2 plus 10 percent hydrogen gas mixture. Liquid media and agar plates were introduced into the glove box by evacuating the lock to 10 inches of mercury and filling with gas four times. The nitrogen gas was used to fill the lock for the first two cycles of evacuation, with the gas mixture described above used for the final two fillings.
All the plates were incubated at 37° C. in Gas Pak jars (Becton, Dickinson and Co.) containing palladium-coated alumina catalysts (reactivated after each use). The results of the agar dilution tests were read after about 24 hours of incubation. The minimum inhibitory concentration (MIC) was recorded as the lowest concentration of test compound at which there was no growth.
The test compounds are identified by the number of the example describing their preparation. The antibiotics clindamycin (C), and erythromycin (E) were also run simultaneously with the novel compounds of this application,for comparison purposes, and the results are included in Chart 1 below.

[9] = tested on: Bacteroides melaninogenicus 1856/28; assay: as above; format: cell-based; conditions: Prevotella intermedia, 1856/28, 24 h, read-out: 24 Hr. MIC
[10] = tested on: Bacteroides fragilis sp. fragilis 108; assay: as above; format: cell-based
[11] = tested on: Eubacterium aerofaciens 1235; assay: as above; format: cell-based; conditions: Collinsella aerofaciens, 1235, 24 h, read-out: 24 Hr. MIC
[12] = tested on: Fusobacterium symbiosum 1470; assay: as above; format: cell-based; conditions: Fusobacterium, 1470, 24 h, read-out: 24 Hr. MIC
[13] = tested on: Peptostreptococcus anaerobius 1428; assay: as above; format: cell-based; conditions: Peptostreptococcus anaerobius, 1428, 24 h, read-out: 24 Hr. MIC
[14] = tested on: Clostridium perfringens 81; assay: microbe, parasite or virus in culture; format: cell-based; conditions: Clostridium perfringens, 81, 24 h, read-out: 24 Hr. MIC, agar dilution, 37° C.
[15] = tested on: Bacteroides fragilis sp. fragilis 113; assay: Agar dilution susceptibility of anaerobic bacteria (Chart 1); format: cell-based
[16] = tested on: Propionibacterium acnes 79; assay: as above; format: cell-based; conditions: Cutibacterium acnes, 79, 24 h, read-out: 24 Hr. MIC
[17] = tested on: Bacteroides corrodens 1874; assay: as above; format: cell-based; conditions: Eikenella corrodens, 1874, 24 h, read-out: 24 Hr. MIC
[18] = tested on: Bacteroides fragilis sp. fragilis 106; assay: as above; format: cell-based
[19] = tested on: Bacteroides fragilis sp. vulgatis 1563; assay: as above; format: cell-based
[20] = tested on: Bacteroides fragilis sp. thetaiotaomicron 1900A; assay: as above; format: cell-based
[21] = tested on: Bacteroides fragilis sp. fragilis 1451; assay: as above; format: cell-based; conditions: Bacteroides fragilis, 24 h, read-out: 24 Hr. MIC
[22] = tested on: Bacteroides vulgatis 1211; assay: as above; format: cell-based; conditions: Bacteroides, 1211, 24 h, read-out: 24 Hr. MIC
[23] = tested on: Bacteroides fragilis sp. fragilis 1936B; assay: as above; format: cell-based; conditions: Bacteroides fragilis, 24 h, read-out: 24 Hr. MIC
[24] = tested on: Bacteroides fragilis sp. fragilis 110; assay: as above; format: cell-based
[25] = tested on: Peptococcus asaccharolyticus 1302; assay: as above; format: cell-based; conditions: Peptoniphilus asaccharolyticus, 1302, 24 h, read-out: 24 Hr. MIC
[26] = tested on: Bacteroides fragilis sp. fragilis 1470; assay: as above; format: cell-based
[27] = tested on: Peptostreptococcus intermedius 1264; assay: as above; format: cell-based; conditions: Peptostreptococcus, 1264, 24 h, read-out: 24 Hr. MIC
[28] = tested on: Bacteroides fragilis sp. fragilis 2; assay: as above; format: cell-based; conditions: Bacteroides fragilis, 24 h, read-out: 24 Hr. MIC
[29] = tested on: Bacteroides fragilis sp. fragilis 103; assay: as above; format: cell-based
[30] = tested on: Bacteroides fragilis sp. fragilis 9; assay: as above; format: cell-based
[31] = tested on: Bacteroides fragilis sp. fragilis 62; assay: as above; format: cell-based
[32] = tested on: Bacteroides fragilis sp. fragilis 107; assay: as above; format: cell-based; conditions: Bacteroides fragilis, 24 h, read-out: 24 Hr. MIC
[33] = tested on: Fusobacterium necrophorum 6054A; assay: as above; format: cell-based; conditions: Fusobacterium necrophorum, 6054A, 24 h, read-out: 24 Hr. MIC
[34] = tested on: Bacteroides fragilis sp. fragilis 1877; assay: as above; format: cell-based
[35] = tested on: Peptococcus prevoti 1281; assay: as above; format: cell-based; conditions: 24 h, read-out: 24 Hr. MIC, agar dilution, 37° C.
[36] = tested on: Salmonella typhimurium; assay: Control of infections caused by Salmonella typhimurium in chickens (Chart 2); format: in vivo; conditions: 60 mg./kg. subcutaneous, day-old chicks, 5 per group, 6 days observation
Procedure: The efficacy of the novel compounds in the control of infections caused by Salmonella typhimurium in chickens was evaluated in the following manner. The test was carried out using day-old chicks weighing approximately 35 g. each. The chicks were divided into groups of 5 chicks per each dosage level. A portion of the chicks received the test compound which was suspended in 0.2 ml. of polyethylene glycol 200 and administered subcutaneously in the neck. […] All the chicks were challenged with a 1:200 dilution of a culture of the organism, 0.1 ml. of the dilution being injected into each chick in the leg intramuscularly. […] The test compounds are identified in the same manner as set forth in experiment 1. In the chart, column 1 lists the compounds tested; column 2, the dosage of test compound in mg./kg.; and column 3, the survival ratio.

[37] = Bacteroides fragilis, 24 h, read-out: 24 Hr. MIC

CC[C@H]1OC(=O)[C@H](C)[C@@H](O[C@H]2C[C@@](C)(OC)[C@@H](O)[C@H](C)O2)[C@H](C)[C@@H](O[C@@H]2O[C@H](C)C[C@H](N(C)C)[C@H]2O)[C@](C)(O)C[C@@H](C)C(=O)[C@H](C)[C@@H](O)[C@]1(C)O [E, erythromycin, reference compound]
4 µg/mL: MIC [9] | MIC [18, 37] | MIC [28] | MIC [29, 37] | MIC [30, 37]
32 µg/mL: MIC [6, 37]
0.5 µg/mL: MIC [1, 37] | MIC [21]
> 64 µg/mL: MIC [20, 37]
16 µg/mL: MIC [24, 37]
> 128 µg/mL: MIC [35]
≤ 0.5 µg/mL: MIC [2] | MIC [11] | MIC [12] | MIC [13] | MIC [16] | MIC [17] | MIC [27]
2 µg/mL: MIC [3] | MIC [4, 37] | MIC [10, 37] | MIC [15, 37] | MIC [23] | MIC [32] | MIC [34, 37]
1 µg/mL: MIC [5, 37] | MIC [7] | MIC [8] | MIC [14] | MIC [19, 37] | MIC [22] | MIC [25]
8 µg/mL: MIC [26, 37] | MIC [31, 37] | MIC [33]

CCOC(=O)C(=O)Nc1c(C#N)c(-c2ncc([N+](=O)[O-])n2C)nn1C [Example 3, N-[4-Cyano-1-methyl-3-(1-methyl-5-nitroimidazol-2-yl)pyrazol-5-yl]oxamic acid, ethyl ester, potassium salt]
0.125 µg/mL: 24 Hr. MIC ([29]; agar dilution, 37° C., Bacteroides fragilis sp. fragilis 103, potassium salt)
0.25 µg/mL: 24 Hr. MIC ([1]; agar dilution, 37° C., Bacteroides fragilis sp. fragilis 1874, potassium salt) | 24 Hr. MIC ([4]; agar dilution, 37° C., Bacteroides fragilis sp. fragilis 111, potassium salt) | 24 Hr. MIC ([6]; agar dilution, 37° C., Bacteroides fragilis sp. fragilis 112, potassium salt) | 24 Hr. MIC ([10]; agar dilution, 37° C., Bacteroides fragilis sp. fragilis 108, potassium salt) | 24 Hr. MIC ([18]; agar dilution, 37° C., Bacteroides fragilis sp. fragilis 106, potassium salt) | 24 Hr. MIC ([19]; agar dilution, 37° C., Bacteroides fragilis sp. vulgatis 1563, potassium salt) | 24 Hr. MIC ([26]; agar dilution, 37° C., Bacteroides fragilis sp. fragilis 1470, potassium salt) | 24 Hr. MIC ([30]; agar dilution, 37° C., Bacteroides fragilis sp. fragilis 9, potassium salt) | 24 Hr. MIC ([34]; agar dilution, 37° C., Bacteroides fragilis sp. fragilis 1877, potassium salt)
0.5 µg/mL: 24 Hr. MIC ([5]; agar dilution, 37° C., Bacteroides fragilis sp. thetaiotaomicron 1438, potassium salt) | 24 Hr. MIC ([15]; agar dilution, 37° C., Bacteroides fragilis sp. fragilis 113, potassium salt) | 24 Hr. MIC ([20]; agar dilution, 37° C., Bacteroides fragilis sp. thetaiotaomicron 1900A, potassium salt) | 24 Hr. MIC ([24]; agar dilution, 37° C., Bacteroides fragilis sp. fragilis 110, potassium salt) | 24 Hr. MIC ([31]; agar dilution, 37° C., Bacteroides fragilis sp. fragilis 62, potassium salt)
3/5: Survival Ratio ([36]; potassium salt)

Cn1nc(-c2ncc([N+](=O)[O-])n2C)c(C#N)c1NC(=O)C(=O)NO [Example 9, N-[4-Cyano-1-methyl-3-(1-methyl-5-nitroimidazol-2-yl)pyrazol-5-yl]-N'-hydroxyoxamide]
4/5: Survival Ratio [36]
